# Patent publication US20100204140A1, “USE OF A PEPTIDE AS A THERAPEUTIC AGENT” (priority 2007, published 2010)
# Tested on: drug-resistant Mycobacterium tuberculosis
# Conditions: peptide 10 micrograms per ml, seven days
structure (smiles),measurement,value
CSCC[C@H](NC(=O)[C@H](CC(C)C)NC(=O)CNC(=O)[C@@H](NC(=O)[C@H](Cc1ccccc1)NC(=O)[C@H](Cc1ccccc1)NC(=O)[C@H](CC(=O)O)NC(=O)[C@H](Cc1c[nH]cn1)NC(=O)[C@H](CCSC)NC(=O)[C@@H](N)CC(=O)O)C(C)C)C(N)=O [Neurokinin B],% inhibition,0.0%
